Peptide text beside a SMILES is read from it. * marks the point of attachment. Cbz = O=C(OCc1ccccc1)*
What was measured:
[1] = test system: Chinese hamster CHL cells; test: Chromosomal screening test for mutagenicity in mammalian cells; conditions: positive control, 500 μg/ml, short treatment, +S9 mix
SRPK1 or SRPK2 = test: Inhibition of SRPK1 or SRPK2 phosphorylation activity by SRPIN-1 analogs (FIG. 5A); assay type: biochemical; conditions: 10 μM in DMSO, 30° C., 20 minutes
Procedure: FIG. 5A: Evaluation of the SRPK-inhibiting activities of SRPIN-1 and analogs thereof.
The same procedure as described in Example 4B was used to determine whether SRPIN-1 analogs had the activity of inhibiting the phosphorylation activity of SRPK1 and SRPK2. Each SRPIN-1 analog (10 μM; in DMSO) was incubated with 1 μg of purified recombinant SRPK1 or SRPK2 protein, which was expressed in E. coli, in a reaction buffer (400 μM HEPES (pH 7.5), 100 μM MgCl2, 200 μM ATP, […] [γ-^32P] ATP, and 1 mg/ml RS peptide (SEQ ID NO: 5)) in a 30° C. water bath for 20 minutes.
After RS peptide was incubated with SRPK1 or SRPK2 for 20 minutes, the reaction solution was dropped onto P81 phosphocellulose membrane (P81; Whatman) and the membrane was washed three times for ten minutes with 5% phosphoric acid solution. After washing, ^32P radioactivity on the P81 membrane was determined using a liquid scintillation counter.

HIV = HIV infection experiment in MT-4 cells, HIVp24 by Lumipulse ELISA; conditions: MT-4 cells, 5, 10, or 20 μM, supernatant after 48 hours
Cytomegalovirus = conditions: HFL1 cells, 20 or 40 μM, seven days after infection
SARS virus (FFM-1) = assay type: cell-based; conditions: Vero cells, 40 μM, 48 hours
SRp75, SRp55, and SRp40 = test: Degradation of HA-tagged SR proteins in Flp-In-293 cells, Western blot; assay type: cell-based, human; conditions: 10 μM, ten hours
Procedure: FIG. 1B: Degradation of SR protein. Plasmids for the SRp75, SRp55, and SRp40 genes were fused with HA tag and introduced into Flp-In-293 cells. MG132 (474790; purchased from CALBIOCHEM) was added to the cells at a final concentration of 10 μM. The cells were lysed and heat-denatured. The resulting protein sample was separated by SDS-PAGE, followed by Western analysis using a rabbit anti-HA antibody as the primary antibody and a donkey anti-rabbit IgG antibody as the secondary antibody.
Using Genejuice, 1 μg each of the plasmids for the SRp75, SRp55, and SRp40 genes fused with HA tag (HA-SRp75, HA-SRp55, and HA-SRp40; gifts from Dr. Woan-Yuh TARN), were introduced into Flp-In-293 cells derived from human fetal kidney. After 36 hours, MG132 (474790; purchased from Calbiochem), a ubiquitin proteasome inhibitor, was added at a final concentration of 10 μM. After ten hours, the cells were lysed with SDS-PAGE sample buffer and heat-denatured. The resulting lysate was used as a protein sample. Using the same procedures as described above, the sample was fractionated by SDS-PAGE, and analyzed by Western blotting using a rabbit anti-HA antibody (H1803; purchased from Santa Cruz) as a primary antibody and a donkey anti-rabbit IgG antibody (NA9340; purchased from Amersham) as a secondary antibody.

SMILES | inhibitory effect on the phosphorylation activity of SRPK1 and/or SRPK2 (SRPK1 or SRPK2) | effect in suppressing HIV replication (HIVp24) (HIV) | also measured
CN(C)N=O [DMN, dimethylnitrosamine, reference compound] | – | – | frequency of occurrence of cells with chromosomal abnormalities [1]: 52.0%; frequency of occurrence of cells with chromosomal abnormalities (number of cells) ([1]; 50 metaphasic cells): 26 cells
C[C@H]1CCCCN1c1ccc(C(F)(F)F)cc1NC(=O)c1ccncc1 [compound 613, (S)—N-[2-(2-methyl-1-piperidinyl)-5-(trifluoromethyl)phenyl]isonicotinamide] | strong inhibitory effect | strong effects in suppressing HIV propagation | –
O=C(NC(=S)Nc1cc(C(F)(F)F)ccc1N1CCCCC1)c1cccnc1 [compound 624, 1-nicotinoyl-3-[2-(1-piperidinyl)-5-(trifluoromethyl)phenyl]thiourea] | strong inhibitory effect | strong effects in suppressing HIV propagation | –
O=C(NC(=S)Nc1ccccc1)c1cccnc1 [compound 626] | – | strong effects in suppressing HIV propagation | –
Cc1ccc(N2CCCCC2)c(NC(=O)c2ccncc2)c1 [compound 342, N-[5-methyl-2-(1-piperidinyl)phenyl]isonicotinamide] | – | strong effects in suppressing HIV propagation | –
O=C(Nc1cccc(C(F)(F)F)c1)c1ccncc1 [compound 608, N-[3-(trifluoromethyl)phenyl]isonicotinamide] | – | strong effects in suppressing HIV propagation | –
O=C(Nc1cc(C(F)(F)F)ccc1N1CCCCC1)c1cccnc1 [compound 343, N-[2-(1-piperidinyl)-5-(trifluoromethyl)phenyl]nicotinamide] | – | strong effects in suppressing HIV propagation | –
O=C(Nc1cc(F)ccc1N1CCCCC1)c1ccncc1 [compound 348, N-[5-fluoro-2-(1-piperidinyl)phenyl]isonicotinamide] | – | strong effects in suppressing HIV propagation | –
O=C(NC(=S)Nc1ccc(I)cc1Cl)c1cccnc1 [compound 623] | – | strong effects in suppressing HIV propagation | –
O=C(Nc1ccccc1N1CCCCC1)c1ccncc1 [Compound No. 349, N-[2-(1-piperidinyl)phenyl]isonicotinamide] | – | – | morphological changes and cell death caused by cytomegalovirus infection (Cytomegalovirus): suppressed the abnormal morphological changes and cell death caused by cytomegalovirus infection; SARS virus propagation (plaque assay) (SARS virus (FFM-1)): significantly suppressed SARS virus propagation
CCN(CC)c1ccc(C(F)(F)F)cc1NC(=O)c1ccncc1 [compound 347, N-[2-diethylamino-5-(trifluoromethyl)phenyl]isonicotinamide] | – | strong effects in suppressing HIV propagation | –
O=C(Nc1cc(Cl)ccc1N1CCCCC1)c1ccncc1 [compound 341, N-[5-chloro-2-(1-piperidinyl)phenyl]isonicotinamide] | – | strong effects in suppressing HIV propagation | –
O=C(Nc1cc(C(F)(F)F)ccc1N1CCCCCC1)c1ccncc1 [compound 618, N-[2-(1-hexahydro-1H-azepinyl)-5-(trifluoromethyl)phenyl]isonicotinamide] | strong inhibitory effect | strong effects in suppressing HIV propagation | –
O=C(Nc1cc(C(F)(F)F)ccc1N1CCc2ccccc2C1)c1ccncc1 [compound 621, N-[2-(1,2,3,4-tetrahydroisoquinolin-2-yl)-5-(trifluoromethyl)phenyl]isonicotinamide] | strong inhibitory effect | – | –
CC(C)C[C@@H](C=O)NC(=O)[C@H](CC(C)C)NC(=O)[C@H](CC(C)C)NC(=O)OCc1ccccc1 [MG132] (Cbz-Leu-Leu-Leu-aldehyde) | – | – | degradation of SR proteins (anti-HA signal) (SRp75, SRp55, and SRp40): inhibited degradation of SR75, SR55, and SR40 proteins
O=C(Nc1cc(C(F)(F)F)ccc1N1Cc2ccccc2C1)c1ccncc1 [compound 620, N-[2-(2-isoindolinyl)-5-(trifluoromethyl)phenyl]isonicotinamide] | – | strong effects in suppressing HIV propagation | –
O=C(Nc1cc(C(F)(F)F)ccc1N1CCc2ccccc21)c1ccncc1 [compound 619, N-[2-(1-indolinyl)-5-(trifluoromethyl)phenyl]isonicotinamide] | strong inhibitory effect | strong effects in suppressing HIV propagation | –
O=C(Nc1cc(C(F)(F)F)ccc1Br)c1ccncc1 [compound 612, N-[2-bromo-5-(trifluoromethyl)phenyl]isonicotinamide] | strong inhibitory effect | – | –
COc1ccc(C(=O)Nc2cc(C(F)(F)F)ccc2N2CCCCC2)cc1 [compound 615, N-[2-(1-piperidinyl)-5-(trifluoromethyl)phenyl]-4-methoxybenzamide] | strong inhibitory effect | strong effects in suppressing HIV propagation | –
O=C(Nc1cc(C(F)(F)F)ccc1N1CCCCC1)c1ccc([N+](=O)[O-])cc1 [compound 345, N-[2-(1-piperidinyl)-5-(trifluoromethyl)phenyl]-4-nitrobenzamide] | – | strong effects in suppressing HIV propagation | –
FC(F)(F)c1ccc(N2CCCCC2)c(NC(=S)c2ccncc2)c1 [compound 616, N-[2-(1-piperidinyl)-5-(trifluoromethyl)phenyl]isonicotinthioamide] | – | strong effects in suppressing HIV propagation | –
O=C(NC(=S)Nc1cccc(C(F)(F)F)c1)c1cccnc1 [compound 625] | strong inhibitory effect | strong effects in suppressing HIV propagation | –
Cc1ccc(S(=O)(=O)Nc2cc(C(F)(F)F)ccc2N2CCCCC2)cc1 [compound 622, N-[2-(1-piperidinyl)-5-(trifluoromethyl)phenyl]-p-toluenesulfonamide] | – | strong effects in suppressing HIV propagation | –

From patent US8816089B2, “Methods for controlling SR protein phosphorylation, and antiviral agents whose active ingredients comprise agents that control SR protein activity” (priority 2003, dated 2014)
